Data: patent US20070179175A1, “Tetrahydronaphthyridine Derivative” (priority 2005, published 2007)

Assays:
[1] = target: T1, human histamine H3 receptor (Homo sapiens, UniProt Q9Y5N1); test: H3 cell based functional assay (cAMP, β-lactamase reporter gene)
T1 construct: expressed in transfected cells; host or cells: HEK-293 cells expressing a CRE beta-lactamase reporter gene
Protocol: The compound was evaluated using a cell based functional assay measuring cAMP through β-lactamase reporter gene activity. A stable cell line was generated from HEK-293 cells expressing a CRE β-lactamase reporter gene and transfected with human histamine H3 receptor cDNA. Cells were seeded at a density of 500,000 cells/ml, and grown overnight in MEM (Invitrogen) supplemented with 1% dialysed FBS (Sigma), 2 mM glutamine (Sigma), 1 mM sodium pyruvate (Sigma), 0.1 mM non essential amino acids (Invitrogen) and 25 mM HEPES (Sigma) in poly D lysine coated 384 well plates (BD Biosciences). […] For IC50 determination, the test compound was prepared in PBS (Sigma) and DMSO (Sigma) at a dose response of 5×10^−10 to 5×10^−5 M with a final DMSO concentration in the assay of 0.5%. Cells were incubated for 15 minutes plus/minus compound and their ability to permit 10 μM forskolin-stimulated cAMP synthesis in the presence of 1 nM imetit was measured as described above.

[2] = target: T2, hERG channel (Homo sapiens, UniProt Q12809); test: hERG patch clamp assay; format: cell-based; details: HEK293 cells stably expressing hERG; whole-cell patch clamp, 26.5-28.5° C.
T2 construct: expressed in transfected cells
T2 sequence (Q12809 whole entry): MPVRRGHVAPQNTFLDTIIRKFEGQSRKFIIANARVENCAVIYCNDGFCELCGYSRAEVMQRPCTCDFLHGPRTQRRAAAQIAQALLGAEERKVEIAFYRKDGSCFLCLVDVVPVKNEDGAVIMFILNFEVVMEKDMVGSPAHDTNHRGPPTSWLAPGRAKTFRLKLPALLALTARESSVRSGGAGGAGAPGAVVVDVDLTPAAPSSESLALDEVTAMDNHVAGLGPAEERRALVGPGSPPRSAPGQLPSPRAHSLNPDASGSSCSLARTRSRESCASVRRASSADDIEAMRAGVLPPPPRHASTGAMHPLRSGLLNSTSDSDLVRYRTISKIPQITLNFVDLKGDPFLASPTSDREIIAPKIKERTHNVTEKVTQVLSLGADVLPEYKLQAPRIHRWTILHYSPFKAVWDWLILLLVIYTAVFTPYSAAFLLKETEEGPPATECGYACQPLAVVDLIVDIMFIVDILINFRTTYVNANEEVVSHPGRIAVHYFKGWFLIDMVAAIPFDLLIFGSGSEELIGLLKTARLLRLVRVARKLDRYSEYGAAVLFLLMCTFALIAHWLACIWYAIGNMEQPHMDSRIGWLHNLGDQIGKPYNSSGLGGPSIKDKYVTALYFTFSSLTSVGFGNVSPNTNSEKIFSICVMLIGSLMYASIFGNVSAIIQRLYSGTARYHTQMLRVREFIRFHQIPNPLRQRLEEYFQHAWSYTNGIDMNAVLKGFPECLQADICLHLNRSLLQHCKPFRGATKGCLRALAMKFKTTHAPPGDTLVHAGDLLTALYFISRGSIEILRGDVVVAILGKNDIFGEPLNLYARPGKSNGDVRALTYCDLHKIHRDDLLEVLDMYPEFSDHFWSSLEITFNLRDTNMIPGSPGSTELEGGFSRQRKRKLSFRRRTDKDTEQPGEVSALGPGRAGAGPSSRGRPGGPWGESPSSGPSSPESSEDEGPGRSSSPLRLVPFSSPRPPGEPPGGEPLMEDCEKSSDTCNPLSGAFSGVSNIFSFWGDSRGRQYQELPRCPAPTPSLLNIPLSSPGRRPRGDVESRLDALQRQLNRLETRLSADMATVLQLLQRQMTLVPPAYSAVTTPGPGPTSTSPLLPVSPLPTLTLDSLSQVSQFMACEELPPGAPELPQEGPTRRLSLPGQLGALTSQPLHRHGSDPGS
Protocol: To determine the potential of compounds to inhibit the hERG channel, the cloned counterpart of the […] delayed rectifier potassium current (IKr), HEK293 cells stably expressing the hERG channel were used in whole-cell patch clamp electrophysiology studies at ambient temperature (26.5-28.5° C.). The methodology for stable transfection of this channel in HEK293 cells can be found elsewhere (Zhou et al 1998, Biophysical Journal, 74, pp 230-241). The solutions used for experimentation were standard extracellular solution of the following composition (mM); NaCl, 137; KCl, 4; CaCl2, 1.8; MgCl2, 1; Glucose, 10; HEPES, 10; pH 7.4±0.05 with NaOH/HCl; and standard intracellular solution of the following composition (mM); KCl 130; MgCl2, 1; HEPES, 10; EGTA, 5; MgATP, 5; pH 7.2±0.05 with KOH. The voltage protocol applied was designed to activate the hERG channel and allow the measurement of drug block of the channel and is as follows. First the membrane potential was stepped from a holding potential of −80 mV to +30 mV for 1s. This was followed by a descending voltage ramp at a rate of 0.5 mV/ms back to holding potential of −80 mV and the peak outward current observed during the repolarizing ramp was measured. This protocol was evoked repeatedly every 4 seconds (0.25 Hz). […]

T1 sequence (Q9Y5N1 whole entry): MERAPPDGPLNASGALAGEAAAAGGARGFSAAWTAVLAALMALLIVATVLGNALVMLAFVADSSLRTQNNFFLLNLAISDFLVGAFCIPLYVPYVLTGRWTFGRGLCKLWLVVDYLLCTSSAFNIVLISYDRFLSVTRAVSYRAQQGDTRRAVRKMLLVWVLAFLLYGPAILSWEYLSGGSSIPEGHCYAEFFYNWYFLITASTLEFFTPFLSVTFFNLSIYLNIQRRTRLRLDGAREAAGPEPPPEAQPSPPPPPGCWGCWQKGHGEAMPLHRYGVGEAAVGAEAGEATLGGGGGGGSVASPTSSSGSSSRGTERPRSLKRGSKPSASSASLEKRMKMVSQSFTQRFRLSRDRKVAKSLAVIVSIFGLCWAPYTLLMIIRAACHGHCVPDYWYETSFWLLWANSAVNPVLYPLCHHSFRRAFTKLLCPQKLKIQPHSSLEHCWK

Structure (SMILES) | Ki ([1]; HEK-293 CRE β-lactamase cells, antagonism of 1 nM imetit, 10 μM forskolin, Ki calculated from IC50 by the Cheng-Prussoff equation) [nM] | IC50 [2] [µM] | EC50 [1] [nM]
CC(C)N1CCC(Oc2ccc3c(n2)CCN(c2ccc(C(N)=O)cn2)C3)CC1 [Example 1, 6-[2-(1-Isopropyl-piperidin-4-yloxy)-7,8-dihydro-5H-[1,6]naphthyridin-6-yl]-nicotinamide] | 2.6 | 22.2 | 
N=C(N)SCCc1cnc[nH]1 [imetit, reference compound] |  |  | 0.35
